Laboratory results as given in patent US4552765A, “Aletheine derivatives” (Santen Pharmaceutical Co., Ltd., priority 1982, dated 1985).

Tested on: CCl4-induced liver damage
Test: effect on CCl4-induced liver damage in rats (serum transaminase s-GOT and s-GPT)
Format: in vivo, Male wistar rats
Conditions: for effect on liver damage: result in words; for serum transaminase s-GPT / serum transaminase s-GOT / s-GPT (inhibitory %) / s-GOT (inhibitory %): 300 mg/Kg orally, 60 min before CCl4 0.25 ml/Kg i.p., 24 h after CCl4; for serum transaminase s-GPT / serum transaminase s-GOT: mean ± standard deviation
Description: Generally, the effect of a certain compound on liver damage is examined by administering it to experimental animals before a liver damage inducer such as carbon tetrachloride, thioacetamide, bromobenzene, paracetamol, D-galactosamine, etc. Carbon tetrachloride (CCl4)-induced liver damage is commonly used as the model. The mechanism to induce liver damage is presumed as follows (Biochemical Pharmacology 21, 49 (1972), ibid., 25, 2163 (1976)). In this invention, the effect of the compounds were examined against CCl4 -induced liver damage using serum transaminase activities (s-GOT and s-GPT) as a parameter. Male wistar rats (6 animals per group), weighing about 170-200 g, fasted for 17 hours, were used in the experiments. Test compounds were given orally at a dose of 300 mg/Kg, and 60 minutes later CCl4 was administered intraperitoneally at a dose of 0.25 ml/Kg (5 ml/Kg as a 5%(v/v)solution in olive oil). As the control, olive oil only was given intraperitoneally at a dose of 5 ml/Kg. All animals were killed 24 hours after CCl4 administration and their s-GOT and s-GPT activities were determined.

[1] = Table I, vs control 11460 ± 1490
[2] = Table II, vs control 6400 ± 2590
[3] = Table II, vs control 13950 ± 4030

| SMILES | effect on liver damage | serum transaminase s-GPT (Table I, control 5100 ± 405) [Karmen unit/ml] | serum transaminase s-GOT (Table I, control 11460 ± 1490) [Karmen unit/ml] | s-GPT (inhibitory %) (Table I, vs control 5100 ± 405) [%] | s-GOT (inhibitory %) [1] [%] | serum transaminase s-GPT (Table II, control 6400 ± 2590) [Karmen unit/ml] | serum transaminase s-GOT (Table II, control 13950 ± 4030) [Karmen unit/ml] | s-GPT (inhibitory %) [2] [%] | s-GOT (inhibitory %) [3] [%] |
| --- | --- | --- | --- | --- | --- | --- | --- | --- | --- |
| NCCC(=O)NCCS [β-aletheine, N-β-Alanyl-2-mercaptoethylamine] | excellent suppressive effect on liver damage |  |  |  |  |  |  |  |  |
| CC(=O)SCCNC(=O)CCNC(=O)OCc1ccccc1 [compound No. 1, N-(2-Acetylthioethyl)-3-(benzyloxycarbonylamino)propionamide] |  | 2590 ± 731 | 5250 ± 1330 | 49 | 54 |  |  |  |  |
| O=C(CCNC(=O)OCc1ccccc1)NCCS [compound No. 5, 3-(benzyloxycarbonylamino)-N-(2-mercaptoethyl)propionamide] | superior effect on liver-damage |  |  |  |  | 1900 ± 1640 | 4450 ± 4430 | 71 | 69 |
| CC(=O)NCCC(=O)NCCSC(C)=O [compound No. 6, 3acetylamino-N--(2acetylthioethyl)propionamide] | superior effect on liver-damage |  |  |  |  | 1730 ± 800 | 3370 ± 1360 | 73 | 76 |
| CCC(=O)SCCNC(=O)CCNC(=O)OCc1ccccc1 [compound No. 2, 3-(Benzyloxycarbonylamino)-N-(2-propionylthioethyl)-propionamide] |  | 1720 ± 613 | 3550 ± 1150 | 66 | 69 |  |  |  |  |
| Cl.NCCC(=O)NCCS [compound No. 4, 3-amino-N-(2-mercaptoethyl)propionamide hydrochloride] |  |  |  |  |  | 1990 ± 1010 | 4690 ± 2490 | 69 | 67 |
| O=C(CCNC(=O)c1ccccc1)NCCSC(=O)c1ccccc1 [compound No. 3, 3-Benzoylamino-N-(2-benzoylthioethyl)propionamide] |  | 2440 ± 960 | 6150 ± 2990 | 52 | 46 |  |  |  |  |
